# Measured values: US11931424B2, “Combination MCL-1 inhibitors with anti-body drug conjugates” (Gilead Sciences, Inc., priority 2021, dated 2024)
# System: panel of breast cancer cell lines
# Test: Compound A with targeted agents and chemotherapies, 72-hour in vitro proliferation assays
# Type: cell-based
# Conditions: 72-hour proliferation
# [1] = BT-20 cell line, compound A × partner
# [2] = CAL-51 cell line, compound A × partner
# [3] = CAL-85-1 cell line, compound A × partner
# [4] = CAL-120 cell line, compound A × partner
# [5] = CAL-148 cell line, compound A × partner
# [6] = CAMA-1 cell line, compound A × partner
# [7] = DU-4475 cell line, compound A × partner
# [8] = EVSA-T cell line, compound A × partner
# [9] = HCC1143 cell line, compound A × partner
# [10] = MCF7 cells, Compound A × partner agent
structure (smiles),measurement,setting,value
CCN1CCN(Cc2ccc(Nc3ncc(F)c(-c4cc(F)c5nc(C)n(C(C)C)c5c4)n3)nc2)CC1 [Abemaciclib],Best CI,[1],0.79
same,Bliss Volume,[1],3.95
same,HSA volume,[1],5.53
same,Loewe Volume,[1],5.32
same,Best CI,[2],1.31
same,Bliss Volume,[2],1.55
same,HSA volume,[2],−0.56
same,Loewe Volume,[2],2.06
same,Synergy Score,[2],2.51
same,Best CI,[3],0.77
same,Bliss Volume,[3],2.60
same,HSA volume,[3],3.28
same,Loewe Volume,[3],3.04
same,Synergy Score,[3],6.47
same,Best CI,[4],1.78
same,Bliss Volume,[4],−5.16
same,HSA volume,[4],−5.98
same,Loewe Volume,[4],−5.00
same,Synergy Score,[4],1.03
same,Best CI,[5],0.70
same,Bliss Volume,[5],6.48
same,HSA volume,[5],5.91
same,Loewe Volume,[5],6.28
same,Synergy Score,[5],15.50
same,Best CI,[6],0.32
same,Bliss Volume,[6],−6.25
same,HSA volume,[6],−10.24
same,Loewe Volume,[6],−10.33
same,Synergy Score,[6],1.56
same,Best CI,[7],1.25
same,Bliss Volume,[7],6.92
same,HSA volume,[7],5.32
same,Loewe Volume,[7],5.72
same,Synergy Score,[7],5.07
same,Best CI,[8],0.64
same,Bliss Volume,[8],0.41
same,HSA volume,[8],−2.86
same,Loewe Volume,[8],−2.48
same,Synergy Score,[8],0.77
same,Best CI,"HCC38, compound A × partner",0.83
same,Bliss Volume,"HCC38, compound A × partner",−4.64
same,HSA volume,"HCC38, compound A × partner",−4.71
same,Loewe Volume,"HCC38, compound A × partner",−4.54
same,Synergy Score,"HCC38, compound A × partner",6.14
same,Best CI,"HCC70, compound A × partner",0.92
same,Bliss Volume,"HCC70, compound A × partner",10.18
same,HSA volume,"HCC70, compound A × partner",6.99
same,Loewe Volume,"HCC70, compound A × partner",8.33
same,Synergy Score,"HCC70, compound A × partner",18.15
same,Best CI,[9],0.41
same,Bliss Volume,[9],10.33
same,HSA volume,[9],2.87
same,Loewe Volume,[9],9.43
same,Synergy Score,[9],7.43
same,Best CI,"HCC1569, compound A × partner",0.18
same,Bliss Volume,"HCC1569, compound A × partner",14.07
same,HSA volume,"HCC1569, compound A × partner",13.17
same,Loewe Volume,"HCC1569, compound A × partner",14.38
same,Synergy Score,"HCC1569, compound A × partner",19.73
same,Bliss Volume,"HCC1806, compound A × partner",4.89
same,HSA volume,"HCC1806, compound A × partner",0.30
same,Loewe Volume,"HCC1806, compound A × partner",3.10
same,Synergy Score,"HCC1806, compound A × partner",4.43
same,Best CI,"HCC1937, compound A × partner",0.26
same,Bliss Volume,"HCC1937, compound A × partner",16.67
same,Loewe Volume,"HCC1937, compound A × partner",16.44
same,Synergy Score,"HCC1937, compound A × partner",28.56
same,Best CI,"HCC1954, compound A × partner",0.89
same,Bliss Volume,"HCC1954, compound A × partner",1.45
same,HSA volume,"HCC1954, compound A × partner",−0.39
same,Loewe Volume,"HCC1954, compound A × partner",−1.29
same,Synergy Score,"HCC1954, compound A × partner",12.74
same,Best CI,"HCC2218, compound A × partner",1.44
same,Bliss Volume,"HCC2218, compound A × partner",−2.40
same,HSA volume,"HCC2218, compound A × partner",−5.74
same,Loewe Volume,"HCC2218, compound A × partner",−6.61
same,Synergy Score,"HCC2218, compound A × partner",4.14
same,Best CI,"HDQ-P1, compound A × partner",0.82
same,Bliss Volume,"HDQ-P1, compound A × partner",−0.79
same,HSA volume,"HDQ-P1, compound A × partner",−0.19
same,Loewe Volume,"HDQ-P1, compound A × partner",0.43
same,Synergy Score,"HDQ-P1, compound A × partner",2.48
same,Best CI,"HMC-1-8, compound A × partner",0.30
same,Bliss Volume,"HMC-1-8, compound A × partner",24.27
same,HSA volume,"HMC-1-8, compound A × partner",13.46
same,Loewe Volume,"HMC-1-8, compound A × partner",13.14
same,Synergy Score,"HMC-1-8, compound A × partner",24.23
same,Best CI,"JIMT-1, compound A × partner",1.23
same,Bliss Volume,"JIMT-1, compound A × partner",1.74
same,HSA volume,"JIMT-1, compound A × partner",1.30
same,Loewe Volume,"JIMT-1, compound A × partner",1.54
same,Synergy Score,"JIMT-1, compound A × partner",1.34
same,Best CI,"KPL-1, compound A × partner",0.77
same,Bliss Volume,"KPL-1, compound A × partner",−3.02
same,HSA volume,"KPL-1, compound A × partner",−1.63
same,Loewe Volume,"KPL-1, compound A × partner",−2.87
same,Best CI,[10],1.06
same,Bliss Volume,[10],4.62
same,HSA volume,[10],4.76
same,Synergy Score,[10],8.46
